Test results from patent US11098041B2 (Merck Patent GmbH, priority 2014, dated 2021).

What was measured:
[1] = test system: IL-1β release by human THP-1 cells; assay: Assay D: THP-1 cells IL-1β release ELISA assay; assay type: cell-based; conditions: PMA and LPS, BzATP stimulation
Method: Assay D: THP-1 Cells IL-1β release ELISA Assay
The assay measures IL-1β release by human THP-1 cells after treatment with PMA and LPS in response to BzATP stimulation in order to evaluate the potency of P2X7 inhibitors. THP-1 cells (2×10^5 cells/mL) in culture medium (RPMI1640 (Gibco, #22400-089)+10% HI-FBS (Gibco, #10082-147)+1% L-Glutamine (Gibco, #25030)+1% Pen/Strep (Gibco, #15140) complemented with 0.5 μM PMA (Sigma, #P8139) were incubated for 30 min at 37° C. At the end of the incubation time, the cells were titrated and washed gently in PBS. The cells were then re-suspended to a density of 1.5×10^5 cell/mL in culture medium complemented with 10 ng/mL LPS (Sigma, #L5293). The cell suspension was dispensed (40 μL/well) into a Corning 384-well plate. After 4 hr of incubation at 37° C., the cells were treated with 20 μL of test compounds at various concentrations. The plate was incubated for 30 min at 37° C. and then the cells were treated with 20 μL of 3.2 mM BzATP (Sigma. #B6396) (0.8 mM final concentration). The plate was incubated for an additional 30 min at 37° C., and then subjected to centrifugation (4 min, 1000 rpm). Supernatant (60 μL) from each well was transferred to a 384-matrix PP plate. The plate was then stored at 4° C. (overnight) or −20° C. for longer term storage. The next day, the […] were measured using a human […] ELISA Kit (R & D systems, catalog #DY201) and read using a SpectraMax Plus 384 Microplate Reader.

[2] = test system: anti-IgM-induced expression of CD69 on CD19 positive cells (B cells) in human PBMCs; assay: Assay C: PBMC IC50 assay (anti-IgM-induced CD69 expression); assay type: cell-based; conditions: anti-IgM stimulation
Procedure, shortened: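 Freshly isolated human PBMCs (2.5×10^5/well) pretreated 1 h with compound, then stimulated overnight (~16-18 h) with goat F(ab′)2 anti-human IgM. CD69 on CD19+ B cells measured by flow cytometry; IC50 from percentage CD69+ B cells versus concentration.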

[3] = biological target: BTK C481S (His-TEV-hsBTK(328-659)(C481S)) (Homo sapiens (Human), UniProt Q06187, C481S); assay: Assay B: microfluidic off-chip mobility shift assay against BTK C481S enzyme; assay type: biochemical; conditions: BTK C481S mutant
Chain of BTK C481S (His-TEV-hsBTK(328-659)(C481S)) (Q06187 328-659 C481S): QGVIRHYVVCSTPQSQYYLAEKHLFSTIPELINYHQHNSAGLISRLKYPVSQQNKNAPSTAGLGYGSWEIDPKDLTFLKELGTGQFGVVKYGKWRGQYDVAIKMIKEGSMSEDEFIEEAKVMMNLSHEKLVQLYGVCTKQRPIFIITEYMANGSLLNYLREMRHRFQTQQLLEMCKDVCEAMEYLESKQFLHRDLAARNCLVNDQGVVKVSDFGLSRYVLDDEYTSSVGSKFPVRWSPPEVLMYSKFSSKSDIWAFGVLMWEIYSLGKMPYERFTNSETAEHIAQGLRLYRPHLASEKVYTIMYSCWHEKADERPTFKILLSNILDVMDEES
Procedure, shortened: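 Substrate-to-phosphopeptide conversion quantified by microfluidic mobility shift with laser-induced fluorescence; IC50 and efficacy from log[inhibitor] vs. % activity.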

[4] = biological target: full-length human BTK (Homo sapiens (Human), UniProt Q06187); assay: Assay A: microfluidic off-chip mobility shift assay against BTK enzyme; assay type: biochemical
Chain of full-length human BTK (Q06187 whole entry): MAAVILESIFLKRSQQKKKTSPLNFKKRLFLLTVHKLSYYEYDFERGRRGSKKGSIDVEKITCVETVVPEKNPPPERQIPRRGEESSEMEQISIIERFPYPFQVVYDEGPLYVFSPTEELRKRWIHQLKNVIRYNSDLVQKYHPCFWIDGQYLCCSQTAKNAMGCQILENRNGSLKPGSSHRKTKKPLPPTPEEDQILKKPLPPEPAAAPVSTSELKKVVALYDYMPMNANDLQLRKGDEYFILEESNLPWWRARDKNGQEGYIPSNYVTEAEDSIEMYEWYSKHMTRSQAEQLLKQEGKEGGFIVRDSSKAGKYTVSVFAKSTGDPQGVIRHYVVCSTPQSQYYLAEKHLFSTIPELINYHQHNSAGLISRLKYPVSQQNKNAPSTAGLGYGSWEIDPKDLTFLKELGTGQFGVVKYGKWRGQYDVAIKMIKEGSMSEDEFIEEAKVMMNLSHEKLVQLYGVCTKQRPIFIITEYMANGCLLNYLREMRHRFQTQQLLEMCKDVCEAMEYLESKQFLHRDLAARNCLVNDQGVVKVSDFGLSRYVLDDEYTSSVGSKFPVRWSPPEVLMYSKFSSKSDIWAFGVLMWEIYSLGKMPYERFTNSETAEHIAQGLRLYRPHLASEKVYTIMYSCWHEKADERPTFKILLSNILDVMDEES

[5] = biological target: LCK (Homo sapiens (Human), UniProt P06239); assay: Assay E: LCK biochemical assay (HotSpot Kinase Assay); conditions: for inhibition at 1 µM: read-out: LCK % inhibition at 1 uM test concentration (Assay E)
Chain of LCK (P06239 whole entry): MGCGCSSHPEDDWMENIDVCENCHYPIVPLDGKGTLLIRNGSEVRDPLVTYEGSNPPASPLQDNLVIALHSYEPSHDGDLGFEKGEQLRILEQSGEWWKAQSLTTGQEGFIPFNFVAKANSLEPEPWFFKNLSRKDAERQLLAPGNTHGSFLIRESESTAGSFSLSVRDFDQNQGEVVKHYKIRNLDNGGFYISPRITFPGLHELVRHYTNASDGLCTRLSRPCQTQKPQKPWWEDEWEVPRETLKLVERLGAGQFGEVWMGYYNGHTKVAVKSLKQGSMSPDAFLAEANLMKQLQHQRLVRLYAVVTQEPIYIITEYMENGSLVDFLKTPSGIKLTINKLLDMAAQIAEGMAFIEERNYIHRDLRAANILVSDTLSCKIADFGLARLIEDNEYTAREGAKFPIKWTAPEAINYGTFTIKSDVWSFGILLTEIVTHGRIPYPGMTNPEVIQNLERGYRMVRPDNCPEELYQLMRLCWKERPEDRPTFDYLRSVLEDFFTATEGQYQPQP
Method: Assay E: LCK Biochemical Assay
The standard protocol below describes the standard HotSpot Kinase Assay run by the Reaction Biology Corporation as a service.
The substrate (poly(EY) (Glu:Tyr (4:1)) and the cofactors were prepared in fresh Reaction Buffer (20 mM Hepes (pH 7.5), 10 mM MgCl2, 2 mM MnCl2, 1 mM EGTA, 0.02% Brij35, 0.02 mg/ml BSA, 0.1 mM Na3VO4, 2 mM DTT, 2% DMSO). To the substrate solution was then added the enzyme (LCK; recombinant human full-length (Genbank Accession #NP_005347); C-terminal His-tagged, expressed in insect cells), and the resulting solution was then gently mixed. The test compounds were dissolved in DMSO and then delivered into the kinase reaction mixture using acoustic liquid handling technology (Echo550; nanoliter range). The reaction mixture was incubated for 20 min at RT and then treated with ^33P-ATP to initiate the reaction. After 2 hours of incubation at RT, kinase activity was detected using Reaction Biology Corporation's proprietary P81 filter-binding method.

IC50 [1] [nM]	IC50 [3] [nM]	IC50 [4] [nM]	inhibition at 1 µM [5] [%]	IC50 [5] [µM]	Compound	IC50 [2] [nM]
< 100	< 100	< 100			CC(C)(C)c1ccc2c(c1)CCN(Cc1ccc(-c3ccnc4[nH]c(-c5ccc(C(=O)N6CCOCC6)cc5)nc34)cc1)C2=O [Example 115, 6-tert-Butyl-2-(4-{2-[4-(morpholine-4-carbonyl)-phenyl]-3H-imidazo[4,5-b]pyridin-7-yl}-benzyl)-3,4-dihydro-2H-isoquinolin-1-one]	100 to 1000
			49		Cn1cc(-c2nc3c(-c4ccc(CNC(=O)c5cc(C(C)(C)C)no5)c(F)c4)ccnc3[nH]2)cn1 [Example 144, 3-(tert-butyl)-N-(2-fluoro-4-(2-(1-methyl-1H-pyrazol-4-yl)-3H-imidazo[4,5-b]pyridin-7-yl)benzyl)isoxazole-5-carboxamide]	
	< 100	< 100		585	CC(C)(C)c1nc(C(=O)NCc2ccc(-c3ccnc4[nH]c(-c5ccc(N6CCC(O)CC6)cn5)nc34)cc2F)no1 [Example 84, 5-tert-butyl-N-[(2-fluoro-4-[2-[5-(4-hydroxypiperidin-1-yl)pyridin-2-yl]-3H-imidazo[4,5-b]pyridin-7-yl]phenyl)methyl]-1,2,4-oxadiazole-3-carboxamide]	< 100
< 100	1000 to 5000	1000 to 5000			Cc1ccc(-n2ccn(-c3cccc(-c4ccnc5[nH]c(-c6ccc(C(=O)N7CCOCC7)cc6)nc45)c3C)c2=O)cc1 [Example 95, 1-[2-Methyl-3-(2-[4-[(morpholin-4-yl)carbonyl]phenyl]-3H-imidazo[4,5-b]pyridin-7-yl)phenyl]-3-(4-methylphenyl)-2,3-dihydro-1H-imidazol-2-one]	
100 to 1000					Cc1c(NC(=O)c2ccc(C(C)(C)C)cc2)cccc1-c1ccnc2[nH]c(-c3cnn(C)c3)nc12 [Example 9, 4-tert-Butyl-N-{2-methyl-3-[2-(1-methyl-1H-pyrazol-4-yl)-3H-imidazo[4,5-b]pyridin-7-yl]-phenyl}-benzamide]	1000 to 5000
	< 100	< 100	29		Cn1cc(-c2nc3c(-c4ccc(CN5Cc6cc(C(C)(C)C)sc6C5=O)c(F)c4)ccnc3[nH]2)cn1 [Example 92, 2-tert-Butyl-5-([2-fluoro-4-[2-(1-methyl-1H-pyrazol-4-yl)-3H-imidazo[4,5-b]pyridin-7-yl]phenyl]methyl)-4H,5H,6H-thieno[2,3-c]pyrrol-6-one]	100 to 1000
100 to 1000	< 100	< 100			O=C(c1ccc(-c2nc3c(-c4cccc(N5CCc6cc(C7CC7)ccc6C5=O)c4CO)ccnc3[nH]2)cc1)N1CCOCC1 [Example 6, 6-Cyclopropyl-2-(2-hydroxymethyl-3-{2-[4-(morpholine-4-carbonyl)-phenyl]-3H-imidazo[4,5-b]pyridin-7-yl}-phenyl)-3,4-dihydro-2H-isoquinolin-1-one]	1000 to 5000
100 to 1000		< 100			CN1CC=C(c2ccc(-c3nc4c(-c5cccc(N6CCOc7cc(C8CC8)cc(F)c7C6=O)c5CO)ccnc4[nH]3)cc2)CC1 [Example 3, 8-Cyclopropyl-6-fluoro-4-[2-(hydroxymethyl)-3-[2-[4-(1-methyl-1,2,3,6-tetrahydropyridin-4-yl)phenyl]-3H-imidazo[4,5-b]pyridin-7-yl]phenyl]-2,3,4,5-tetrahydro-1,4-benzoxazepin-5-one]	100 to 1000
1000 to 5000	> 5000	> 5000			CC(C)(O)CCN1Cc2cc(-c3ccnc4[nH]c(-c5ccc(C(=O)N6CCOCC6)cc5)nc34)ccc2C1=O [Example 114, 2-(3-Hydroxy-3-methyl-butyl)-5-{2-[4-(morpholine-4-carbonyl)-phenyl]-3H-imidazo[4,5-b]pyridin-7-yl}-2,3-dihydro-isoindol-1-one]	
		< 100	11		CN(C)c1ccc(-c2nc3c(-c4ccc(CNC(=O)c5noc(C(C)(C)C)n5)c(F)c4)ccnc3[nH]2)nc1 [Example 146, 5-tert-Butyl-[1,2,4]oxadiazole-3-carboxylic acid 4-[2-(5-dimethylamino-pyridin-2-yl)-3H-imidazo[4,5-b]pyridin-7-yl]-2-fluoro-benzylamide]	100 to 1000
		< 100	40		CC(C)(C)c1nnc(C(=O)NCc2ccc(-c3ccnc4[nH]c(C5=CCOCC5)nc34)cc2F)o1 [Example 138, 5-(tert-butyl)-N-(4-(2-(3,6-dihydro-2H-pyran-4-yl)-3H-imidazo[4,5-b]pyridin-7-yl)-2-fluorobenzyl)-1,3,4-oxadiazole-2-carboxamide]	100 to 1000
		< 100	7.3		CC(C)(C)c1nc(C(=O)NCc2ccc(-c3ccnc4[nH]c(-c5ccc(N6CCC(F)(F)CC6)cn5)nc34)cc2F)no1 [Example 82, 5-tert-Butyl-N-[(4-[2-[5-(4,4-difluoropiperidin-1-yl)pyridin-2-yl]-3H-imidazo[4,5-b]pyridin-7-yl]-2-fluorophenyl)methyl]-1,2,4-oxadiazole-3-carboxamide]	< 100
100 to 1000	< 100	< 100			Cc1c(NC(=O)c2ccc(C(C)(C)C)cc2)cccc1-c1ccnc2[nH]c(-c3ccc(C(=O)O)cc3)nc12 [Example 153, 4-{7-[3-(4-tert-Butyl-benzoylamino)-2-methyl-phenyl]-3H-imidazo[4,5-b]pyridin-2-yl}-benzoic acid]	> 5000
< 100					Cc1c(NC(=O)c2ccc(C(C)(C)C)cc2)cccc1-c1ccnc2[nH]c(-c3ccc(C(=O)N4CCOCC4)cc3)nc12 [Example 5, 4-(tert-butyl)-N-(2-methyl-3-(2-(4-(morpholine-4-carbonyl)phenyl)-3H-imidazo[4,5-b]pyridin-7-yl)phenyl)benzamide]	1000 to 5000
< 100	< 100	< 100			CC(C)(C)c1ccc(C(=O)NCc2ccc(-c3ccnc4[nH]c(-c5ccc(C(=O)N6CCOCC6)cc5)nc34)cc2F)cc1 [Example 118, 4-tert-Butyl-N-(2-fluoro-4-{2-[4-(morpholine-4-carbonyl)-phenyl]-3H-imidazo[4,5-b]pyridin-7-yl}-benzyl)-benzamide]	< 100
	< 100	< 100			Cn1cc(-c2nc3c(-c4cc(F)cc(N5CCn6c(cc7c6CC(C)(C)C7)C5=O)c4CO)ccnc3[nH]2)cn1 [Example 10, 2-(5-fluoro-2-(hydroxymethyl)-3-(2-(1-methyl-1H-pyrazol-4-yl)-3H-imidazo[4,5-b]pyridin-7-yl)phenyl)-7,7-dimethyl-2,3,4,6,7,8-hexahydro-1H-cyclopenta[4,5]pyrrolo[1,2-a]pyrazin-1-one]	< 100
	100 to 1000	< 100			CN(C)c1ccc(-c2nc3c(-c4ccc(C5(NC(=O)c6ccc(C(C)(C)C)cc6)CC5)cc4)ccnc3[nH]2)nc1 [Example 54, 4-tert-Butyl-N-[1-(4-[2-[5-(dimethylamino)pyridin-2-yl]-3H-imidazo[4,5-b]pyridin-7-yl]phenyl)cyclopropyl]benzamide]	100 to 1000

Compound	IC50 [1] [nM]	IC50 [3] [nM]	IC50 [4] [nM]	inhibition at 1 µM [5] [%]	IC50 [5] [µM]	IC50 [2] [nM]
Cn1cc(-c2nc3c(-c4ccc(CNC(=O)N5CC(OC(C)(C)C)C5)c(F)c4)ccnc3[nH]2)cn1 [Example 55, 3-(tert-Butoxy)-N-([2-fluoro-4-[2-(1-methyl-1H-pyrazol-4-yl)-3H-imidazo[4,5-b]pyridin-7-yl]phenyl]methyl)azetidine-1-carboxamide]	1000 to 5000					100 to 1000
